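Compound exposure: 48 hours, 5 concentrations, 96-well plates. GI50 is the concentration that inhibits growth by half.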 The source made the active and inactive calls. Rule as the data show it: active = GI50 up to about 1.1 µM and inactive = higher.
Columns and labels:
Assay in all cases: growth of human tumour cells (NCI), 48 h
[1] = tested on: CCRF-CEM
[2] = tested on: HL-60
[3] = tested on: SN12C
[4] = tested on: SF-295
[5] = tested on: IGROV-1
[6] = tested on: HCT-116
[7] = tested on: M14
[8] = tested on: SW-620
[9] = tested on: HOP-62
[10] = tested on: NCI-H226
[11] = tested on: NCI-H522
[12] = tested on: EKVX
[13] = tested on: MOLT-4
[14] = tested on: U-251
[15] = tested on: RXF 393
[16] = tested on: DU-145
[17] = tested on: CAKI-1
[18] = tested on: ACHN
[19] = tested on: MDA-N

Cc1c2c(c(C)c3c4c(oc13)CCCC4)C=NCC2
GI50 [1]: 12.1 µM (inactive) | GI50 [2]: 19.7 µM (inactive) | GI50 [3]: 15.8 µM (inactive) | GI50 [4]: 16.1 µM (inactive) | GI50 [5]: 13.6 µM (inactive) | GI50 [6]: 14.9 µM (inactive) | GI50 [7]: 20.2 µM (inactive) | GI50 [8]: 21.3 µM (inactive) | GI50 [9]: 32.2 µM (inactive) | GI50 [10]: 14.2 µM (inactive) | GI50 [11]: 16 µM (inactive) | GI50 [12]: 12.7 µM (inactive) | GI50 [13]: 7.89 µM (inactive) | GI50 [14]: 13.1 µM (inactive) | GI50 [15]: 3.66 µM (inactive) | GI50 [16]: 15 µM (inactive) | GI50 [17]: 13.2 µM (inactive) | GI50 [18]: 15.8 µM (inactive)

C[B@@-]1(c2ccc(C(F)(F)F)cc2)N[C@@H](Cc2ccccc2)C(=O)O1
GI50 [1]: > 100 µM (inactive) | GI50 [2]: 31.8 µM (inactive) | GI50 [3]: > 100 µM (inactive) | GI50 [4]: > 100 µM (inactive) | GI50 [5]: > 100 µM (inactive) | GI50 [6]: > 100 µM (inactive) | GI50 [7]: > 100 µM (inactive) | GI50 [8]: > 100 µM (inactive) | GI50 [9]: > 100 µM (inactive) | GI50 [10]: > 100 µM (inactive) | GI50 [12]: > 100 µM (inactive) | GI50 [13]: > 100 µM (inactive) | GI50 [19]: > 100 µM (inactive) | GI50 [14]: > 100 µM (inactive) | GI50 [16]: > 100 µM (inactive) | GI50 [18]: > 100 µM (inactive)

C[C@@H]1OC(=O)C[C@H]2CC(=O)N(CCC3CN(S(=O)(=O)C(F)(F)F)c4ccccc43)C[C@@H]21 (stereo partly drawn)
GI50 [1]: > 100 µM (inactive) | GI50 [4]: > 100 µM (inactive) | GI50 [5]: 69.7 µM (inactive) | GI50 [6]: > 100 µM (inactive) | GI50 [7]: > 100 µM (inactive) | GI50 [8]: > 100 µM (inactive) | GI50 [9]: > 100 µM (inactive) | GI50 [11]: > 100 µM (inactive) | GI50 [12]: > 100 µM (inactive) | GI50 [13]: > 100 µM (inactive) | GI50 [14]: > 100 µM (inactive) | GI50 [15]: > 100 µM (inactive) | GI50 [16]: > 100 µM (inactive) | GI50 [17]: > 100 µM (inactive) | GI50 [18]: > 100 µM (inactive)

CC(=O)NNc1nc(C)c(C(=O)NNC(=O)C(=O)Nc2c(C)cccc2C(C)(C)C)s1
GI50 [1]: 16.2 µM (inactive) | GI50 [2]: 33.3 µM (inactive) | GI50 [3]: 44.2 µM (inactive) | GI50 [4]: > 100 µM (inactive) | GI50 [5]: 93.3 µM (inactive) | GI50 [6]: 75.2 µM (inactive) | GI50 [7]: > 100 µM (inactive) | GI50 [8]: > 100 µM (inactive) | GI50 [9]: > 100 µM (inactive) | GI50 [10]: > 100 µM (inactive) | GI50 [11]: 20.9 µM (inactive) | GI50 [12]: > 100 µM (inactive) | GI50 [13]: 41.1 µM (inactive) | GI50 [14]: 58.7 µM (inactive) | GI50 [15]: > 100 µM (inactive) | GI50 [17]: 49.5 µM (inactive) | GI50 [18]: 59.4 µM (inactive)

O=C1c2ccccc2-c2nc(/C=C/c3ccccc3)cc3c2c1nc1ccccc13
GI50 [1]: 24.4 µM (inactive) | GI50 [3]: 33.2 µM (inactive) | GI50 [4]: 23 µM (inactive) | GI50 [5]: 20.4 µM (inactive) | GI50 [6]: 17.4 µM (inactive) | GI50 [7]: 26.2 µM (inactive) | GI50 [8]: 20 µM (inactive) | GI50 [9]: 16.3 µM (inactive) | GI50 [10]: 69.2 µM (inactive) | GI50 [11]: 10.3 µM (inactive) | GI50 [12]: 53.8 µM (inactive) | GI50 [13]: 23.6 µM (inactive) | GI50 [14]: 17.7 µM (inactive) | GI50 [15]: 29.2 µM (inactive) | GI50 [16]: 68.4 µM (inactive) | GI50 [17]: 26 µM (inactive) | GI50 [18]: 26.4 µM (inactive)

O=P1(O)C=CC2(CCCC2)O1
GI50 [2]: > 100 µM (inactive) | GI50 [3]: > 100 µM (inactive) | GI50 [4]: > 100 µM (inactive) | GI50 [5]: > 100 µM (inactive) | GI50 [6]: > 100 µM (inactive) | GI50 [7]: > 100 µM (inactive) | GI50 [8]: > 100 µM (inactive) | GI50 [9]: > 100 µM (inactive) | GI50 [11]: > 100 µM (inactive) | GI50 [12]: > 100 µM (inactive) | GI50 [19]: > 100 µM (inactive) | GI50 [14]: > 100 µM (inactive) | GI50 [16]: > 100 µM (inactive) | GI50 [18]: > 100 µM (inactive)

CSc1c(C#N)c2n(c3ccccc13)c1ccccc1[n+]2C
GI50 [1]: 16 µM (inactive) | GI50 [2]: 20.3 µM (inactive) | GI50 [3]: 18.2 µM (inactive) | GI50 [4]: 34 µM (inactive) | GI50 [5]: 33.2 µM (inactive) | GI50 [6]: 6.4 µM (inactive) | GI50 [7]: 29.3 µM (inactive) | GI50 [8]: 23.8 µM (inactive) | GI50 [9]: 23.1 µM (inactive) | GI50 [11]: 12.3 µM (inactive) | GI50 [12]: 19.1 µM (inactive) | GI50 [13]: 12.9 µM (inactive) | GI50 [19]: 26.2 µM (inactive) | GI50 [14]: 24.6 µM (inactive) | GI50 [16]: 29.2 µM (inactive) | GI50 [17]: 21.3 µM (inactive) | GI50 [18]: 18.2 µM (inactive)

CCC(C)n1c(C)nc2c1C(=O)c1ccccc1C2=O (stereo not drawn)
GI50 [1]: 37.2 µM (inactive) | GI50 [2]: 14.5 µM (inactive) | GI50 [3]: 57.8 µM (inactive) | GI50 [4]: 49.8 µM (inactive) | GI50 [5]: 45.1 µM (inactive) | GI50 [6]: 31.6 µM (inactive) | GI50 [7]: > 100 µM (inactive) | GI50 [8]: 64.7 µM (inactive) | GI50 [9]: 58.2 µM (inactive) | GI50 [10]: 61.9 µM (inactive) | GI50 [11]: 51.3 µM (inactive) | GI50 [12]: 96.8 µM (inactive) | GI50 [13]: 28.1 µM (inactive) | GI50 [14]: 44.8 µM (inactive) | GI50 [15]: 26.7 µM (inactive) | GI50 [18]: 46.9 µM (inactive)

CCCCCCCCCC[C@@H](O)[C@@H]1CC[C@@H]([C@@H]2CC[C@@H]([C@@H](O)CCCCCCCCCCC(O)CC3=CC(C)OC3=O)O2)O1 (stereo partly drawn)
GI50 [1]: 2.47 µM (inactive) | GI50 [2]: 0.116 µM (active) | GI50 [3]: > 10 µM (inactive) | GI50 [4]: 2.72 µM (inactive) | GI50 [5]: > 10 µM (inactive) | GI50 [6]: 0.551 µM (active) | GI50 [7]: > 10 µM (inactive) | GI50 [8]: 8.2 µM (inactive) | GI50 [9]: 0.655 µM (active) | GI50 [10]: 0.173 µM (active) | GI50 [11]: 0.177 µM (active) | GI50 [12]: 3.03 µM (inactive) | GI50 [13]: 1.26 µM (inactive) | GI50 [15]: 2.69 µM (inactive) | GI50 [16]: 3.98 µM (inactive) | GI50 [18]: 0.931 µM (active)

C=CC[C@@]1(C(=O)OC)[C@H](Sc2ccccc2)C1(C)C
GI50 [1]: 28.8 µM (inactive) | GI50 [2]: 16.2 µM (inactive) | GI50 [3]: 21.1 µM (inactive) | GI50 [4]: 36.1 µM (inactive) | GI50 [5]: 26.9 µM (inactive) | GI50 [6]: 23.6 µM (inactive) | GI50 [7]: 56.8 µM (inactive) | GI50 [8]: 61.4 µM (inactive) | GI50 [9]: > 100 µM (inactive) | GI50 [10]: 35.5 µM (inactive) | GI50 [11]: 30.5 µM (inactive) | GI50 [12]: 33.3 µM (inactive) | GI50 [13]: 14.4 µM (inactive) | GI50 [14]: 49.2 µM (inactive) | GI50 [16]: 67.9 µM (inactive) | GI50 [17]: 74.8 µM (inactive) | GI50 [18]: > 100 µM (inactive)

CCOC(=O)C(NC(=O)Nc1ccccc1F)(OC)C(F)(F)F (stereo not drawn)
GI50 [1]: > 100 µM (inactive) | GI50 [2]: > 100 µM (inactive) | GI50 [3]: > 100 µM (inactive) | GI50 [5]: > 100 µM (inactive) | GI50 [6]: > 100 µM (inactive) | GI50 [7]: > 100 µM (inactive) | GI50 [8]: > 100 µM (inactive) | GI50 [12]: > 100 µM (inactive) | GI50 [13]: > 100 µM (inactive) | GI50 [19]: > 100 µM (inactive) | GI50 [14]: > 100 µM (inactive) | GI50 [15]: > 100 µM (inactive) | GI50 [17]: 44.5 µM (inactive) | GI50 [18]: > 100 µM (inactive)

Cc1nc2c(=O)[nH]c(=O)n(C)c2[nH]c1=O.c1ccncc1
GI50 [1]: 10 µM (inactive) | GI50 [2]: > 100 µM (inactive) | GI50 [3]: > 100 µM (inactive) | GI50 [5]: > 100 µM (inactive) | GI50 [6]: > 100 µM (inactive) | GI50 [7]: > 100 µM (inactive) | GI50 [8]: > 100 µM (inactive) | GI50 [9]: > 100 µM (inactive) | GI50 [10]: > 100 µM (inactive) | GI50 [11]: > 100 µM (inactive) | GI50 [12]: > 100 µM (inactive) | GI50 [13]: > 100 µM (inactive) | GI50 [14]: > 100 µM (inactive) | GI50 [15]: > 100 µM (inactive) | GI50 [17]: > 100 µM (inactive) | GI50 [18]: > 100 µM (inactive)

Reference: ChEMBL document CHEMBL1201862, “PubChem BioAssay data set” (2004)
